Data: paper PMC8398766, “Do Small Molecules Activate the TrkB Receptor in the Same Manner as BDNF? Limitations of Published TrkB Low Molecular Agonists and Screening for Novel TrkB Orthosteric Agonists” (Pharmaceuticals, 2021)
Entries after “also recorded” stand apart in the source; their conditions may differ.

What was measured:
[1] = Metabolic stability in mouse liver microsomes; conditions: compared with verapamil
[2] = Metabolic stability in human liver microsomes; conditions: compared with verapamil
exTrkB = molecular target: T1, exTrkB (Homo sapiens, UniProt Q16620); experiment: MST binding affinity (Kd) determination; conditions: non-binding compounds given as 0
T1 construct: human TrkB receptor (exTrkB), residues 1−430, was cloned into the pCMV2 expression vector; made in house; host or cells: ExpiCHO-S cells
Experimental: The gene encoding the extracellular domain of the human TrkB receptor (exTrkB), residues 1−430, was cloned into the pCMV2 expression vector. Protein expression was performed in suspension-cultivated mammalian ExpiCHO-S cells using the ExpiFectamine (Thermo Scientific, Thermo Fisher Scientific, Waltham, MA, USA) transfection reagent. The secreted protein was purified using a four-step protocol. Clarified culture medium was precipitated with ammonium sulfate added to a final concentration of 1.5 M and centrifuged (235,000× g, 60 min at 4 °C). The supernatant after centrifugation was applied on a HiTrap Phenyl column (GE Healthcare, Chicago, IL, USA) equilibrated with buffer A (25 mM Tris, 1 mM DTT; pH 7.5) with 1.5 M ammonium sulfate. Bound proteins were eluted with a linear gradient of buffer A. The eluted proteins were dialyzed overnight in buffer A and loaded on a CaptoQ ImpRes column (GE Healthcare) equilibrated with buffer A with 50 mM NaCl. The bound proteins were eluted with a linear gradient of buffer A with 1 M NaCl. The fractions containing exTrkB protein were pooled, and MnCl2 and CaCl2 (1mM final concentration each) were added. The sample was purified on a HiTrap Con A 4B column (GE Healthcare) equilibrated with buffer B (25 mM Tris, 0.5 M NaCl, 1 mM MnCl2, 1 mM CaCl2; pH 7.5) and eluted with buffer C (25 mM Tris, 0.1 M NaCl, 0.4 M α-D-glucopyranoside; pH 6.5). To improve the protein recovery, buffer C flow was paused nine times during elution. The eluted fractions were concentrated and purified by size-exclusion chromatography on a HiLoad 16/600 Superdex 200 column (GE Healthcare) in buffer A with 0.5 M NaCl. The protein samples were concentrated to 1 mg/mL, and buffer was exchanged (PBS; pH 7.4). Samples were frozen in liquid nitrogen and stored at −80 °C. The protein purity was estimated by SDS–PAGE followed by Coomassie Brilliant Blue staining. The protein concentration was determined from the absorption at 280 nm using an UV NanoDrop 1000 spectrophotometer (Thermo Scientific).
The exTrkB was labeled with a Monolith Protein Labeling Kit RED-NHS 2nd Generation (NanoTemper Technologies GmbH, Munich, Germany) according to the manufacturer’s protocol. The labelling efficiency was always determined spectrophotometrically with NanoPhotometer® NP80 (Impel) in line with the manufacturer’s recommendations. Labelled exTrkB protein was aliquoted and stored at −80 °C to avoid repeated freeze–thaw cycles. Before analysis, the exTrkB protein was thawed on ice and diluted with MST buffer (50 mM Tris pH = 8; 150 mM NaCl; 10 mM MgCl2; 0.1% Tween20) to the desired concentration.
For primary screening (single-point MST experiments for signal amplitude determination), each of the 987 screened compounds were diluted in MST buffer + 0.1% Tween20 to a final concentration of 0.5 mM. The tested compounds were mixed with exTrkB solution (the final concentration of exTrkB was 20 nM) and centrifuged (10,000× g, 4 min at 4 °C) to eliminate protein and compound aggregates. Before loading to capillaries (Monolith NT.115 Capillaries, NanoTemper Technologies GmbH), the samples were incubated for 5 min at 25 °C and then placed into the MST apparatus (Monolith, NanoTemper Technologies GmbH). The experiments were performed using nano-blue excitation, LED light adjusted to 20% excitation power, and MST power set to medium, and the fluorescence signal during thermophoresis was detected after 30 s. Single-point MST experiments were performed by the determination of the amplitude signal between the unbound and bound state between the molecule and exTrkB, which was analyzed using the MO.Control Software version 1.6 (NanoTemper Technologies GmbH). A reference sample containing only exTrkB and the equivalent DMSO concentration (v/v) was included in each individual MST experiment. At least three technical replicates were prepared for each of the tested compounds. A binding affinity study was performed for 113 of the selected compounds at 16 concentration points. […]

[3] = test system: RA-differentiated SH-SY5Y cells; experiment: Cytoprotection against MPP+-induced cytotoxicity; format: cell-based; conditions: MPP+ 0.5 mM, compounds 0.3, 1, 3 μM, BDNF 1, 10, 100 ng/mL, 72 h + 72 h
Experimental: To differentiate SH-SY5Y, cells were seeded in a cell culture flask at a density of 10,000 cells/cm^2 in standard growth medium containing 10 μM retinoic acid (RA; MilliporeSigma) and cultured for 7 consecutive days. Then, differentiated cells were harvested by trypsinization (Trypsin-EDTA 1×, 3 min at 37 °C), centrifuged (250× g; 5 min at 25 °C) and counted. The desired experiment cells were seeded in differentiation medium (MEM:Ham’s F12 growth medium +10 μM RA) in multi-well plates at the following densities: 1,000,000 cells/well on a 6-well plate for lysate collection and immunoblot analysis, and 12,000 cells/well into a PDL-treated 96-well plate (BioCoat™, Corning Inc.) for neuroprotection experiments.
The experiment design was adopted from the article published by Presgraves et al., (2004), with the following modifications. Differentiated SH-SY5Y were prepared as described in Section 4.3.1. On the day of the experiment (Day 0), culture medium containing 10 μM RA was changed for treatment medium composed of MEM:HAM’S F12 (1:1 v/v), 1 × Antibiotic-Antimycotic, and 1 × MEM Non-Essential Amino Acids, with the FBS reduced to 0.5%. In this step, RealTime-Glo™ reagents (Promega, Madison, WI, USA) were added to the treatment medium (to a final concentration of 0.5 × ). Cell viability was measured after 1 h of incubation at 37 °C using a luminometer (VICTOR Light 1420-060) for normalization. Then, the tested compounds and BDNF were diluted in culturing medium as 2 × concentrate (final concentrations of 0.3, 1, and 3 μM for the small molecular compounds and 1, 10, and 100 ng/mL for BDNF) and added into wells for 72 h of incubation (volume, 100 μL/well). Then (Day 3), the treatment medium was replaced with fresh medium containing 0.5 × RealTime-Glo™ reagents (volume, 100 μL/well), and the cell viability was measured for normalization. Then, compounds and BDNF were added as 4 × concentrates (volume, 50 μL/well). In addition, MPP^+ was also diluted in treatment medium and added to the wells as a 4 × concentrate (final concentration, 0.5 mM; volume, 50 μL/well). The cells were incubated for a further 72 h at 37 °C. On Day 6, the cell viability was measured 1 h after replacing the medium with the medium containing 0.5 × RealTime-Glo™ (volume 100 μL/well). The experiments were performed with three biological independent replicates, and the final cell viability (endpoint, Day 6) was normalized to the normalized cell viability calculated on Day 3.

T1 sequence (Q16620 32-430): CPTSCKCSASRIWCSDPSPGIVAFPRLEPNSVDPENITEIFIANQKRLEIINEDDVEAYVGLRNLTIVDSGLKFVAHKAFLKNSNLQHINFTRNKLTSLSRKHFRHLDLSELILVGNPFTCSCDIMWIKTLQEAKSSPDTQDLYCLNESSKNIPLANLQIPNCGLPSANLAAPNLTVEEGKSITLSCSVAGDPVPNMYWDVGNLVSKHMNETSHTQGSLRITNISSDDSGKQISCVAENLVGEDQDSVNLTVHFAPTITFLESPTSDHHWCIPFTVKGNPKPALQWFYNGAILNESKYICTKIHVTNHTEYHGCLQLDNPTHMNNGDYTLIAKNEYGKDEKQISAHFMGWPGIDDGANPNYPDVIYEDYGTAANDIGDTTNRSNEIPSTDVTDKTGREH

Molecule	Metabolic stability in MLM (classification) [1]	Metabolic stability in HLM (classification) [2]	Kd (exTrkB) [nM]	Cytoprotective effect (cell viability) [3]	Cytoprotective effect (cell viability) ([3]; listed as CPL503051)
O=c1cc(-c2ccccc2)oc2c(O)c(O)ccc12 [7,8-DHF, 7,8-dihydroxyflavone]	moderate degradation rate	moderate degradation rate	1300	not able to protect; also recorded: not able to confirm any cytoprotective action	
O=C1C(O)=C(c2c[nH]c3ccccc23)C(=O)C(O)=C1c1c[nH]c2ccccc12 [CPL503052, didemethylasterriquinone D]			2600	no cytoprotective properties	did not demonstrate any cytoprotective effect
C=CC(C)(C)c1[nH]c2ccccc2c1C1=C(O)C(=O)C(c2c[nH]c3c(CC=C(C)C)cccc23)=C(O)C1=O [DMAQ-B1]	instability of this compound in the experimental system	instability of this compound in the experimental system	5600	did not demonstrate any cytoprotective effect	
BDNF: Brain-derived neurotrophic factor, endogenous TrkB receptor agonist (protein, UniProt P23560 19-247, looked up) Neurotrophic factor BDNF …: APMKEANIRGQGGLAYPGVRTHGTLESVNGPKAGSRGLTSLADTFEHVIEELLDEDQKVRPNEENNKDADLYTSRVMLSSQVPLEPPLLFLLEEYKNYLDAANMSMRVRRHSDPARRGELSVCDSISEWVTAADKKTAVDMSGGTVTVLEKVPVSKGQLKQYFYETKCNPMGYTKEGCRGIDKRHWNSQCRTTQSYVRALTMDSKKRIGWRFIRIDTSCVCTLTIKRGR			93	dose-dependent cytoprotective effect	
